Laboratory results reported in ChEMBL document CHEMBL1201862, “PubChem BioAssay data set” (2004).
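Protocol summary: plate cells (96-well), add compound at 5 concentrations, incubate 48 h, interpolate endpoints linearly. GI50 is the concentration that inhibits growth by half.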 Calls of active or inactive are those of the source. Rule as the data show it: active = GI50 up to about 1.1 µM and inactive = higher.

Legend:
Assay in all cases: NCI-60 cell line screen, 48 h
MDA-MB-435 = tested on: MDA-MB-435
HL-60 = tested on: HL-60
HCT-116 = tested on: HCT-116
CAKI-1 = tested on: CAKI-1
NCI-H522 = tested on: NCI-H522
MOLT-4 = tested on: MOLT-4
EKVX = tested on: EKVX
KM12 = tested on: KM12
U-251 = tested on: U-251
OVCAR-5 = tested on: OVCAR-5
SK-MEL-28 = tested on: SK-MEL-28
T47D = tested on: T47D
M14 = tested on: M14
SF-268 = tested on: SF-268
Malme-3M = tested on: Malme-3M
DU-145 = tested on: DU-145
IGROV-1 = tested on: IGROV-1
MCF7 = tested on: MCF7
BT-549 = tested on: BT-549

| SMILES | GI50 (MDA-MB-435) | GI50 (HL-60) | GI50 (HCT-116) | GI50 (CAKI-1) | GI50 (NCI-H522) | GI50 (MOLT-4) | GI50 (EKVX) | GI50 (KM12) | GI50 (U-251) | GI50 (OVCAR-5) | GI50 (SK-MEL-28) | GI50 (T47D) | GI50 (M14) | GI50 (SF-268) | GI50 (Malme-3M) | GI50 (DU-145) | GI50 (IGROV-1) | GI50 (MCF7) | GI50 (BT-549) |
| --- | --- | --- | --- | --- | --- | --- | --- | --- | --- | --- | --- | --- | --- | --- | --- | --- | --- | --- | --- |
| CC1=C/C(O)CC(=O)Cc2nc(co2)C(=O)N2CCC=C2C(=O)OC(C(C)C)C(C)/C=C\C(=O)NC/C=C\1 (stereo not drawn) | 24.8 µM (inactive) | 20.3 µM (inactive) | 14.5 µM (inactive) | 22 µM (inactive) | 0.176 µM (active) | 16.6 µM (inactive) | 18.8 µM (inactive) | 12.4 µM (inactive) | 35.8 µM (inactive) | 18.8 µM (inactive) | 19.6 µM (inactive) | 12.2 µM (inactive) | 17.3 µM (inactive) | 16 µM (inactive) | 11.7 µM (inactive) | 27.1 µM (inactive) | 16.6 µM (inactive) | 19.1 µM (inactive) | 20.5 µM (inactive) |
| O=C1COCCN1C(=O)c1ccccc1Cl | > 100 µM (inactive) | > 100 µM (inactive) | > 100 µM (inactive) | > 100 µM (inactive) | > 100 µM (inactive) | > 10 µM (inactive) | > 100 µM (inactive) | > 100 µM (inactive) | > 100 µM (inactive) | > 100 µM (inactive) | > 100 µM (inactive) | > 100 µM (inactive) | > 100 µM (inactive) | > 100 µM (inactive) | > 100 µM (inactive) | > 100 µM (inactive) | > 100 µM (inactive) | 34 µM (inactive) | > 100 µM (inactive) |
| C=C(C)COC1CCCCO1 (stereo not drawn) | > 100 µM (inactive) | > 100 µM (inactive) | > 100 µM (inactive) | > 100 µM (inactive) | > 100 µM (inactive) | > 100 µM (inactive) | > 100 µM (inactive) | > 100 µM (inactive) | > 100 µM (inactive) | > 100 µM (inactive) | > 100 µM (inactive) | > 100 µM (inactive) | > 100 µM (inactive) | > 100 µM (inactive) | > 100 µM (inactive) | > 100 µM (inactive) | > 100 µM (inactive) | > 100 µM (inactive) | > 100 µM (inactive) |
| O=C(N/N=C\c1ccc2ccccc2c1)Nc1ccc([N+](=O)[O-])cc1 | 31.1 µM (inactive) | > 57.9 µM (inactive) | 21.1 µM (inactive) | 45 µM (inactive) | 16.3 µM (inactive) | 20 µM (inactive) | 47.3 µM (inactive) | 33.4 µM (inactive) | 29.3 µM (inactive) | 22.5 µM (inactive) | 26.2 µM (inactive) | 17.9 µM (inactive) | 32.2 µM (inactive) | 27 µM (inactive) | 27.7 µM (inactive) | 23.7 µM (inactive) | 29.7 µM (inactive) | 22.3 µM (inactive) | 24.3 µM (inactive) |
| CC(C)(O)/C1=C/C=C/CCCCCCCCCC1 | > 100 µM (inactive) | 28.9 µM (inactive) | > 100 µM (inactive) | > 100 µM (inactive) | 95.9 µM (inactive) | 28.1 µM (inactive) | > 100 µM (inactive) | > 100 µM (inactive) | > 100 µM (inactive) | > 100 µM (inactive) | > 100 µM (inactive) | > 100 µM (inactive) | > 100 µM (inactive) | > 100 µM (inactive) | > 100 µM (inactive) | > 100 µM (inactive) | > 100 µM (inactive) | > 100 µM (inactive) | > 100 µM (inactive) |
| O=C1c2c(O)ccc(O)c2C(=O)c2c(NCCNC(=O)C(O)C(O)C(O)C(O)CO)ccc(NCCNC(=O)C(O)C(O)C(O)C(O)CO)c21 (stereo not drawn) | 0.355 µM (active) | < 0.01 µM (active) | 0.0332 µM (active) | < 0.01 µM (active) | < 0.02 µM (active) | < 0.01 µM (active) | 0.165 µM (active) | 0.0277 µM (active) | 0.0109 µM (active) | 0.192 µM (active) | 0.211 µM (active) | 0.0102 µM (active) | < 0.0195 µM (active) | 0.0241 µM (active) | 0.212 µM (active) | < 0.01 µM (active) | < 0.0383 µM (active) | < 0.01 µM (active) | 0.121 µM (active) |
| O=C(CNC(=O)c1ccccc1)Oc1c(Cl)c(Cl)c(Cl)c(Cl)c1Cl | 36.1 µM (inactive) | 24.6 µM (inactive) | 56.4 µM (inactive) | 25.8 µM (inactive) | 29.6 µM (inactive) | 29 µM (inactive) | 21.5 µM (inactive) | 22.4 µM (inactive) | 26.7 µM (inactive) | 47.2 µM (inactive) | 39 µM (inactive) | 42.6 µM (inactive) | 64.9 µM (inactive) | 40.6 µM (inactive) | 28.8 µM (inactive) | 23.4 µM (inactive) | 27.8 µM (inactive) | 40.2 µM (inactive) | 20.5 µM (inactive) |
